Structures are written as SMILES. pIC50: −log10 of the molar value.

This experiment deals with T1, LAG-3 (biotinylated LAG-3 of HTRF LAG-3/MHCII binding assay) (Homo sapiens, UniProt P18627).
T1 construct: gene LAG3; biotinylated LAG-3 reagent of Revvity HTRF LAG-3/MHCII kit
T1 sequence (P18627 23-450 limits assumed): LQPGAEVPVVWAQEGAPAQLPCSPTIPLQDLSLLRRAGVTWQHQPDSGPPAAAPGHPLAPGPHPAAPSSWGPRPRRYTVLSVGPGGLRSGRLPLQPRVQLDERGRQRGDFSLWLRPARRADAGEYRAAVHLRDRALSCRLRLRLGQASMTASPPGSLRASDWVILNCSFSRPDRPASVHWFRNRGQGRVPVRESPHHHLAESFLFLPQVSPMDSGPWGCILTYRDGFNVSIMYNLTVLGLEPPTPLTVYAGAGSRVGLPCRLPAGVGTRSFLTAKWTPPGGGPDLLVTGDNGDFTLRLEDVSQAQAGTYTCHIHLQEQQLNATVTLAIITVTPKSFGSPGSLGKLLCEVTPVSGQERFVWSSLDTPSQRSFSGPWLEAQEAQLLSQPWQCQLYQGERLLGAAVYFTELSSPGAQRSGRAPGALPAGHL
The experiment in a line: HTRF LAG-3/MHCII binding inhibition. For orientation: In TR-FRET formats the signal depends on donor and acceptor labels being close together.
`Cc1cc(=O)oc2cc(NC(=O)c3cc(NC(=O)c4ccccc4)ccc3Oc3ccc(C(=O)O)cc3)ccc12` [LG-125] gave a pIC50 of 4.68.
With `Cc1cc(=O)oc2cc(NC(=O)c3cc(NC(=O)c4cccc(C5(C(F)(F)F)CCC5)c4)ccc3Oc3ccc(C(=O)O)cc3)ccc12` [LG-131] the figure was 6.22; with `COc1ccc(OC)c(NC(=O)C(=O)Nc2ccc(Oc3ccc(C(=O)O)cc3)c(C(=O)Nc3ccc4c(C)cc(=O)oc4c3)c2)c1` [LG-164], 6.43; with `Cc1cc(=O)oc2cc(NC(=O)c3cc(NS(=O)(=O)N4CCC(c5ccccc5)CC4)ccc3Oc3ccc(C(=O)O)cc3)ccc12` [LG-193], 6.33.

By pIC50 is commonly meant the IC50 on a negative log10 scale, so that one unit is a factor of ten.

Values taken from doi:10.1101/2025.08.29.673196v2, “Development and characterization of Novel Small Molecule Inhibitors Targeting LAG-3 Protein” (biorxiv, 2025).
